Measured values from US7763647B2, “Topical solution containing a chromane or chromene derivative” (Laboratories Expanscience, priority 2001, dated 2010).

Legend:
[1] = test system: actinic erythema induced by UVA+B irradiation; assay: Reduction of actinic erythema induced by UVA+B irradiation, double blind test with placebo, visual reading; assay type: in vivo, healthy volunteers; details: when solubilized beforehand in PEG 300
Protocol: The placebo (P1) and the active products (P2), (P3) and (P4) were thus used to carry out this test.
Several steps were followed: • Preliminary step: Evaluation of the individual Minimum Erythemal Dose (MEDi). • First step: Application of products P1 to P4 to a 35 cm^2 surface. The quantity applied is exactly 4 mg/cm^2. The zones for applying the products are modified by rotation from one volunteer to another. • Second step: Irradiation of the treated zones and of one untreated zone (control zone) fifteen minutes after application of the products, by positioning the MEDi at the third hole. • Third steps: Visual readings of the erythema 6 and 24 hours after the irradiation. a.) Choice of the Subjects […]
Beforehand, with the same apparatus, the individual MED of each subject was determined on the top of the back. […]
The irradiation times for the treated zones and for the untreated zone are determined so as to place the MEDi at the third hole.
The administered UV doses are calculated with the aid of a calibrated ROBERTSON-BERGER dosimeter equipped with a UVB reading head. The results are expressed directly as values read on the dosimeter and expressed as MED (1 MED=25 mJ/cm^2). […]
A numerical quantification corresponding to the degree of erythema is performed according to the following table: […]

[2] = Tests of solubility of genistein in polyethylene glycols or their ethoxylated homologs (HPLC assay); details: for Genistein assayed (% by weight in the solution): room temperature, stirred 30 minutes
Protocol: Tests of Solubility of Genistein in Polyethylene Glycols or Their Ethoxylated Homologs Procedure:
The quantity of genistein used in powdered form is accurately weighed in a 250 ml beaker. A precise quantity of excipient is then added. The mixture is then vigorously stirred (mechanical stirring) at room temperature for 30 minutes. The product is then directly assayed according to the protocol described below.
The assay of genistein is carried out by reverse phase high-performance liquid chromatography (C18 stationary phase—acetic acid/acetonitrile mobile phase) and detection by UV spectrophotometry (absorption maximum of the compound).

[3] = excipient PEG 200, genistein used 12.0% by weight
[4] = excipient PEG 300, genistein used 8.0% by weight
[5] = excipient PEG 300, genistein used 10.0% by weight
[6] = excipient PEG 300, genistein used 12.0% by weight
[7] = excipient PEG 400, genistein used 12.0% by weight
[8] = excipient PEG 600, genistein used 12.0% by weight

O=c1c(-c2ccc(O)cc2)coc2cc(O)cc(O)c12 [Genistein]
Antierythemal activity of genistein [1]: increased
Concentration at which genistein can be incorporated, in soluble form, into PEG 300 ([2]; PEG 300): ~12 % by weight relative to the total weight of the solution
Genistein assayed (% by weight in the solution) ([2]; excipient Laureth 11 (oxyethylenated C12 alcohol), genistein used 12.0% by weight): 9.5 % by weight in the solution
Solubility ([2]; excipient Laureth 11, genistein used 12.0% by weight): high
Genistein assayed (% by weight in the solution) ([2]; excipient Liponic EG1 (ethoxylated glycerol), genistein used 10.0% by weight): 9.1 % by weight in the solution
Solubility ([2]; excipient Liponic EG1, genistein used 10.0% by weight): high
Solubility [2, 3]: high
Genistein assayed (% by weight in the solution) [2, 3]: 10.9 % by weight in the solution
Solubility [2, 4]: high
Genistein assayed (% by weight in the solution) [2, 4]: 7.6 % by weight in the solution
Solubility [2, 5]: high
Genistein assayed (% by weight in the solution) [2, 5]: 9.3 % by weight in the solution
Solubility [2, 6]: high
Genistein assayed (% by weight in the solution) [2, 6]: 11.2 % by weight in the solution
Solubility [2, 7]: high
Genistein assayed (% by weight in the solution) [2, 7]: 10.1 % by weight in the solution
Genistein assayed (% by weight in the solution) ([2]; excipient PEG400 dilaurate (fatty diester of PEG), genistein used 12.0% by weight): 9.5 % by weight in the solution
Solubility ([2]; excipient PEG400 dilaurate, genistein used 12.0% by weight): high
Solubility [2, 8]: high
Genistein assayed (% by weight in the solution) [2, 8]: 10.7 % by weight in the solution
